Converted amounts (≈) assume the structure as drawn.
Columns and labels:
[1] = system: male SD rats; assay: Antiinflammatory potency by adjuvant arthritis (AA); assay type: in vivo; conditions: daily oral dose day 14 to day 22, rat
Protocol: Arthritis was induced in male SD rats weighing 180-200 g by subcutaneous injection of Mycobacterium butyricum mixed in 0.1 ml of incomplete Freund's adjuvanat into the base of the tail. The foot volumes were measured using a displacement plethysomometer 14 days after the injection of the adjuvant. Animals with paw volumes greater than the normal paw volumes (without the adjuvant treatment) by 0.37 ml were selected, and then randomized. A designated daily dose of a compound of this invention, which was suspended in 1% aqueous methylcellulose solution, was administered to the randomized rats with arthritis by oral gavage daily once beginning on day 14 after the injection of the adjuvant. The administration of the compound continued till day 22 after the injection of the adjuvant, and the paw volumes were measured on daily basis using a displacement plethysmometer.
% Inhibition of AA=(1−Δtreated/Δcontrol)×100
wherein Δtreated=[(paw volume at day 22)/(paw volume at day 14)−1] for a drug-administered rat, and Δcontrol=[(paw volume at day 22)/(paw volume at day 14)−1] for a rat without drug administration.
ED50 value was determined b a dose-response curve for each compound.

[2] = molecular target: T1, COX-2 (Mus musculus, UniProt Q05769); assay: Evaluation of COX-2 activity: PGE2 formation in aspirin-treated, LPS-stimulated mouse peritoneal macrophages; assay type: cell-based
T1 sequence (Q05769 18-604): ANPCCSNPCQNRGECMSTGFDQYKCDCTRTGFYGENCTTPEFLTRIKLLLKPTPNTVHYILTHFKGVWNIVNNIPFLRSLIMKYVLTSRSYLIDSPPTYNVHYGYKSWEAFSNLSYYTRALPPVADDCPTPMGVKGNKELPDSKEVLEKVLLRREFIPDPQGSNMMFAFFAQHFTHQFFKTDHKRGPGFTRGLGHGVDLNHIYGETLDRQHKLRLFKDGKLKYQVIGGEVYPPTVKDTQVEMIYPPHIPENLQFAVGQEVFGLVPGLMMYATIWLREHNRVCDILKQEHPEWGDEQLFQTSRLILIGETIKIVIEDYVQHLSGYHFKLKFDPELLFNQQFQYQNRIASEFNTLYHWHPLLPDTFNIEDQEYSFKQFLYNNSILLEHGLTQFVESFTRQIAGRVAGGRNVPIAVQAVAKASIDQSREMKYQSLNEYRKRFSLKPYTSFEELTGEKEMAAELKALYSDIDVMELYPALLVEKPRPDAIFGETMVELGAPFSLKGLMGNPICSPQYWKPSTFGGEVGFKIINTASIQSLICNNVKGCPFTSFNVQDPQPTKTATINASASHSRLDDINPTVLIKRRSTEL
Outline: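 C57BL/6 peritoneal macrophages treated with 500 μM aspirin to block COX-1, adhered, then stimulated with 10 μg/ml LPS for 16 h at 37 °C to induce COX-2.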

SMILES | Adjuvant Arthritis ED50 [1] | IC50, μg/ml COX-2 [2] | melting point
CC1(C)OC(c2ccc(S(N)(=O)=O)cc2)=C(c2cccc(F)c2)C1=O [Example 129, 5-{4-(aminosulfonyl)phenyl}-2,2-dimethyl-4-(3-fluorophenyl)-3(2H)-furanone] | 0.02 mg/kg body weight | 0.0067 µg/mL (≈ 0.0185 µM) | –
CC1(C)OC(c2ccc(S(N)(=O)=O)cc2)=C(c2cccc(Cl)c2)C1=O [Example 126] | 0.03 mg/kg body weight | 0.014 µg/mL (≈ 0.0371 µM) | 194 to 195 °C
CC1(C)OC(c2ccc(S(C)(=O)=O)cc2)=C(c2cccc(F)c2)C1=O [Example 4, 2,2-Dimethyl-4-(3-fluorophenyl)-5-{4-(methylsulfonyl)phenyl}-3(2H)-furanone] | 0.07 mg/kg body weight | 0.02 µg/mL (≈ 0.0555 µM) | 178 to 179 °C
CC1(C)OC(c2ccc(S(N)(=O)=O)cc2F)=C(c2ccc(F)cc2)C1=O [Example 334] | 0.09 mg/kg body weight | 0.03 µg/mL (≈ 0.0791 µM) | 95 to 97 °C
CC1(C)OC(c2ccc(S(C)(=O)=O)cc2)=C(c2cc(F)cc(F)c2)C1=O [Example 11, 4-(3,5-Difluorophenyl)-2,2-dimethyl-5-{4-(methylsulfonyl)phenyl}-3(2H)-furanone] | 0.03 mg/kg body weight | 0.05 µg/mL (≈ 0.132 µM) | 141 to 142 °C
